Patent publication US20240182461A1, “SELECTIVE ANGIOTENSIN II RECEPTOR LIGANDS” (priority 2021, published 2024)
Where two headings read alike, the source gives them in different places.

Tests used:
Assay type in all cases: in vitro ADME
[1] = Metabolic stability in pooled human liver microsomes; settings: human liver microsomes 0.5 mg/mL, 1 μM compound, 37° C.
CYP1A = biological target: T1, CYP1A (Homo sapiens, UniProt P05177); test: CYP inhibition in human liver microsomes, CYP1A; settings: probe phenacetin, substrate phenacetin, read-out: CYP1A Inh %
T1 construct: incubated with human liver microsomes; from tissue; host or cells: human liver microsomes

CYP2B6 = biological target: T2, CYP2B6 (Homo sapiens, UniProt P20813); test: CYP inhibition in human liver microsomes, CYP2B6; settings: probe bupropion, substrate bupropion, read-out: CYP2B6 Inh %
T2 construct: incubated with human liver microsomes; from tissue; host or cells: human liver microsomes
T2 sequence (P20813 1-491): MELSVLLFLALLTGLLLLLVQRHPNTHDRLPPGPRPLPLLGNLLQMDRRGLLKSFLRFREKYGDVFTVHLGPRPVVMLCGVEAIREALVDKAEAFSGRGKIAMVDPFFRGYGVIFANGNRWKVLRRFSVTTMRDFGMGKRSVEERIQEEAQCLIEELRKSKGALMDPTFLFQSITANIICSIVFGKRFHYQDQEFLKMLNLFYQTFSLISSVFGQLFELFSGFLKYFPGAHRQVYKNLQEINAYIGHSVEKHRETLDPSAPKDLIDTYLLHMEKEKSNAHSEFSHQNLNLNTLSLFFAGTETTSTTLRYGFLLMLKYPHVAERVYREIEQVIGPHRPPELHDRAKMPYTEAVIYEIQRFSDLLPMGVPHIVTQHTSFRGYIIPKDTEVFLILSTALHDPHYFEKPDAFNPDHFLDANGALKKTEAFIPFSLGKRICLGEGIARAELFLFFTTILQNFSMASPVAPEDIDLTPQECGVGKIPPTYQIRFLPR

CYP2C19 = biological target: T3, CYP2C19 (Homo sapiens, UniProt P33261); test: CYP inhibition in human liver microsomes, CYP2C19; settings: probe omeprazole, substrate omeprazole, read-out: CYP2C19 Inh %
T3 construct: incubated with human liver microsomes; from tissue; host or cells: human liver microsomes

CYP2C8 = biological target: T4, CYP2C8 (Homo sapiens, UniProt P10632); test: CYP inhibition in human liver microsomes, CYP2C8; settings: probe paclitaxel and amodiaquine, substrates paclitaxel and amodiaquine, read-out: CYP2C8 Inh %
T4 construct: incubated with human liver microsomes; from tissue; host or cells: human liver microsomes
T4 sequence (P10632 1-490): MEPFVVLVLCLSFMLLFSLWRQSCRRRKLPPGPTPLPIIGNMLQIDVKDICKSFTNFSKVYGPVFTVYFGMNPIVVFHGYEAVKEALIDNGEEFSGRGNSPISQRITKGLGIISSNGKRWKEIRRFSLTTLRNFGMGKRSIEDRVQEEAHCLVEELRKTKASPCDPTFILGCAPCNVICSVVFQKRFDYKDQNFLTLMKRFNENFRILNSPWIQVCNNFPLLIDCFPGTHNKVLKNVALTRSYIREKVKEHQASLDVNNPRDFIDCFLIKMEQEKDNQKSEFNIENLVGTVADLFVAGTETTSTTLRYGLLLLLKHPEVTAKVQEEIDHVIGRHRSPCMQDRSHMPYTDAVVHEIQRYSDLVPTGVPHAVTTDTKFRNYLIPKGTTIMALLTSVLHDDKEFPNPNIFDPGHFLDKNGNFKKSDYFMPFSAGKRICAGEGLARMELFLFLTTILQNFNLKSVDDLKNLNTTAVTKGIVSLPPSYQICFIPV

CYP2D6 = biological target: T5, CYP2D6 (Homo sapiens, UniProt P10635); test: CYP inhibition in human liver microsomes, CYP2D6; settings: probe dextromethorphan, substrate dextromethorphan, read-out: CYP2D6 Inh %
T5 construct: incubated with human liver microsomes; from tissue; host or cells: human liver microsomes

CYP3A4&5 = test: CYP inhibition in human liver microsomes, CYP3A4&5 testosterone; settings: probe testosterone, substrate testosterone, read-out: CYP3A4&5 testosterone Inh %
CYP2C9 = CYP2C9 (Homo sapiens, UniProt P11712); test: CYP inhibition in human liver microsomes, CYP2C9; parameters: incubated with human liver microsomes; from tissue; host or cells: human liver microsomes; settings: probe diclofenac, substrate diclofenac, read-out: CYP2C9 Inh %
CYP3A4 = CYP3A4 (Homo sapiens, UniProt P08684); test: CYP inhibition in human liver microsomes, CYP3A4 midazolam; parameters: incubated with human liver microsomes; from tissue; host or cells: human liver microsomes; settings: probe midazolam, substrate midazolam, read-out: CYP3A4 midazolam Inh %
[2] = with 1 mM NADPH, read-out: T1/2, + NaDPH
[3] = without NADPH, read-out: T1/2, no NaDPH

CYP3A4, sequence (P08684 whole entry): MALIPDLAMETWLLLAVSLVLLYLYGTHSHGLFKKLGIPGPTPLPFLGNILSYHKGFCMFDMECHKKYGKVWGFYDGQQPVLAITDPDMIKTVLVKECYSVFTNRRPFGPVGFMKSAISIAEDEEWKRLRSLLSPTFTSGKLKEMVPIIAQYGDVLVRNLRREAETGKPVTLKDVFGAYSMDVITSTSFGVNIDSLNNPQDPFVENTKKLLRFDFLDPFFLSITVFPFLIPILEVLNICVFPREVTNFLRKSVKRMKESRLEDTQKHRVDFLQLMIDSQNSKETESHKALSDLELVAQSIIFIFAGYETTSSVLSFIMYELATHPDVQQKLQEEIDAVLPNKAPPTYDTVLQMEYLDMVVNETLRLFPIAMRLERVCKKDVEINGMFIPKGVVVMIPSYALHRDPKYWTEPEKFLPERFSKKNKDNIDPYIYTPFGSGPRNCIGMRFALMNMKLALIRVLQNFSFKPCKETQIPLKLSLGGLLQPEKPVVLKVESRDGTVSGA
T3 sequence (P33261 whole entry): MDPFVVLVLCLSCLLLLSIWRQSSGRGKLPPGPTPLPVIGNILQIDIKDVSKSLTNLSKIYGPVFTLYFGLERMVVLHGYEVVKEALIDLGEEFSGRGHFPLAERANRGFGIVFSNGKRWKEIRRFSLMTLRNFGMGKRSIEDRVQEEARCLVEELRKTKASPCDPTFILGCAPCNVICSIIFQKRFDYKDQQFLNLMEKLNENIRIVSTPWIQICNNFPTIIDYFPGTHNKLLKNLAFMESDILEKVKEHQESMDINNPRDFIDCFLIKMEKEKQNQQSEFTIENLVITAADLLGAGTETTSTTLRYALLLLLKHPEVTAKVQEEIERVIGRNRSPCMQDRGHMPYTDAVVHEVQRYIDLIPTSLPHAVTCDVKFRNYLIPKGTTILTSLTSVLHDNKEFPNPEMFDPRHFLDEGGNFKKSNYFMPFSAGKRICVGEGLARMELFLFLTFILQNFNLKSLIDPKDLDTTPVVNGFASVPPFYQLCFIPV
T1 sequence (P05177 whole entry): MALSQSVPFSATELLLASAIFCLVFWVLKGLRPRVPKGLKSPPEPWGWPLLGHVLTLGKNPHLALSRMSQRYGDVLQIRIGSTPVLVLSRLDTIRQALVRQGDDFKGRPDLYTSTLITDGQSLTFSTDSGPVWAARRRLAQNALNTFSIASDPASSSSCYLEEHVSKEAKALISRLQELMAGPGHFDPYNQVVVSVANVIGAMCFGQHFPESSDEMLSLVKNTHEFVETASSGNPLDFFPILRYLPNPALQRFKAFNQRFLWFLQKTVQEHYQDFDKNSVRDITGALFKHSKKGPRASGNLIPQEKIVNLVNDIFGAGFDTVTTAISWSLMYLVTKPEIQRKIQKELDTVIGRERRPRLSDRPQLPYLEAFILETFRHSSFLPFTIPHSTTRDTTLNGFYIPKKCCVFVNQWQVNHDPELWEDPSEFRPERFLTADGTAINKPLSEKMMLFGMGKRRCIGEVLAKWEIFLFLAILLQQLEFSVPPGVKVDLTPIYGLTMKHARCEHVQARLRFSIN
T5 sequence (P10635 whole entry): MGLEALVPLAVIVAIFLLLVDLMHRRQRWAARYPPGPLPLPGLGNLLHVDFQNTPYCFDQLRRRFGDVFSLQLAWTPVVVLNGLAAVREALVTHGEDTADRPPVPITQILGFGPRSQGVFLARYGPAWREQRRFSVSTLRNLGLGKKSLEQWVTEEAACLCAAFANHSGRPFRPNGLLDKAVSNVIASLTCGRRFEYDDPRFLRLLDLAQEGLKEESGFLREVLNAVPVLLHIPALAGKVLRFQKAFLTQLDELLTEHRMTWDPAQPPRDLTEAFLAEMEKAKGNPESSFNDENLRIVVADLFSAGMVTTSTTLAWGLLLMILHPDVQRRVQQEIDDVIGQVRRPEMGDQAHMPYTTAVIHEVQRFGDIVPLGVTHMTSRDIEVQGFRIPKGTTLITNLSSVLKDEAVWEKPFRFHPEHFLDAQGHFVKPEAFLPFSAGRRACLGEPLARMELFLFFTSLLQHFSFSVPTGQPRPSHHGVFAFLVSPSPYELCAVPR
CYP2C9, sequence (P11712 whole entry): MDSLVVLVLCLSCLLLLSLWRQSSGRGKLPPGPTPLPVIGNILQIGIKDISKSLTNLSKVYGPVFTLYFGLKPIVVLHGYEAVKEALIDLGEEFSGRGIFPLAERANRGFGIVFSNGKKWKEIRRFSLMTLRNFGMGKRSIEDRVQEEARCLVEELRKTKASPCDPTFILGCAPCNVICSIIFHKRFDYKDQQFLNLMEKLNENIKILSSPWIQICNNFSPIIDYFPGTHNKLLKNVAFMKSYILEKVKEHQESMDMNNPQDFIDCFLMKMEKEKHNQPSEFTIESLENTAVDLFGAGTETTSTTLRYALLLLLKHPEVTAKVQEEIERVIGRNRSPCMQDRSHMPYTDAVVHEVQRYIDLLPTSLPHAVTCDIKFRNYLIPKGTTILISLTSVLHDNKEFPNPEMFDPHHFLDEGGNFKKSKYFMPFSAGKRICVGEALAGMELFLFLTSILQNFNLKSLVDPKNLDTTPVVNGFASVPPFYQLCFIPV

half-life at 1 μM [1, 2] [min]	half-life at 1 μM [1, 3] [min]	inhibition at 10 µM (CYP1A) [%]	inhibition at 10 µM (CYP2B6) [%]	inhibition at 10 µM (CYP2C19) [%]	inhibition at 10 µM (CYP2C8) [%]	inhibition at 10 µM (CYP2D6) [%]	inhibition at 10 µM (CYP3A4&5) [%]	inhibition at 10 µM (CYP2C9) [%]	inhibition at 10 µM (CYP3A4) [%]	Structure (SMILES)
> 60	> 60	2.5	28.2	27.2	77.2	-2.4	17.5	37.9	-4.9	COC(=O)NS(=O)(=O)c1ccc(CC(C)C)cc1-c1ccc(Cn2ccnc2C(C)C)c(F)c1 [Example 9, Methyl ((3′-fluoro-5-isobutyl-4′-((2-isopropyl-1H-imidazol-1-yl)methyl)-[1,1′-biphenyl]-2-yl)sulfonyl)carbamate]
32	35	3.2	31.8	54.9	46.9	-12.9	24.5	68.6	11.5	CCCCOC(=O)NS(=O)(=O)c1ccc(CC(C)C)cc1-c1ccc(Cn2ccnc2C)c(F)c1 [Example 10, Butyl ((3′-fluoro-5-isobutyl-4′-((2-methyl-1H-imidazol-1-yl)methyl)-[1,1′-biphenyl]-2-yl)sulfonyl)carbamate]
> 60	> 60	–	–	–	–	–	–	–	–	CC(C)Cc1ccc(S(=O)(=O)NC(=O)OCCO)c(-c2ccc(Cn3ccnc3C(C)(C)C)cc2)c1 [Example 16, 2-Hydroxyethyl (4′-((2-(tert-butyl)-1H-imidazol-1-yl)methyl)-5-isobutyl-[1,1′-biphenyl]-2-yl)sulfonylcarbamate]

More lines, now with the values behind:

Structure (SMILES)	half-life at 1 μM [1, 2] [min]	half-life at 1 μM [1, 3] [min]	inhibition at 10 µM (CYP1A) [%]	inhibition at 10 µM (CYP2B6) [%]	inhibition at 10 µM (CYP2C19) [%]	inhibition at 10 µM (CYP2C8) [%]	inhibition at 10 µM (CYP2D6) [%]	inhibition at 10 µM (CYP3A4&5) [%]	inhibition at 10 µM (CYP2C9) [%]	inhibition at 10 µM (CYP3A4) [%]
COC(=O)NS(=O)(=O)c1ccc(CC(C)C)cc1-c1ccc(Cn2ccnc2C(C)(C)C)c(F)c1 [Example 5, Methyl ((4′-((2-(tert-butyl)-1H-imidazol-1-yl)methyl)-3′-fluoro-5-isobutyl-[1,1′-biphenyl]-2-yl)sulfonyl)carbamate]	> 60	> 60	-13.1	26.2	34.4	87.9	17.7	15.1	72	3.8
CCOC(=O)NS(=O)(=O)c1ccc(CC(C)C)cc1-c1ccc(Cn2ccnc2C(C)(C)C)c(F)c1 [Example 6, Ethyl ((4′-((2-(tert-butyl)-1H-imidazol-1-yl)methyl)-3′-fluoro-5-isobutyl-[1,1′-biphenyl]-2-yl)sulfonyl)carbamate]	12	14	8.6	26.4	49.3	53	33.1	31	72.2	19.9
CCCCOC(=O)NS(=O)(=O)c1ccc(CC(C)C)cc1-c1ccc(Cn2ccnc2C(C)C)c(F)c1 [Example 7, Butyl ((3′-fluoro-5-isobutyl-4′-((2-isopropyl-1H-imidazol-1-yl)methyl)-[1,1′-biphenyl]-2-yl)sulfonyl)carbamate]	18	20	6.3	52.2	59.3	73.9	-4.1	29.7	80.7	9.7
CCOC(=O)NS(=O)(=O)c1ccc(CC(C)C)cc1-c1ccc(Cn2ccnc2C(C)C)c(F)c1 [Example 8, Ethyl ((3′-fluoro-5-isobutyl-4′-((2-isopropyl-1H-imidazol-1-yl)methyl)-[1,1′-biphenyl]-2-yl)sulfonyl)carbamate]	36	35	10.4	32	33.7	76.7	1.2	19.4	50	-4.7
